# Data: patent US11040981B2, “Pyrrolotriazine compounds and methods of inhibiting TAM kinases” (Syros Pharmaceuticals, Inc., priority 2017, dated 2021)
# How the values were obtained:
# MERTK = target: T1, MERTK (Homo sapiens, UniProt Q12866); assay: TR-FRET kinase activity assay, MERTK; format: biochemical; conditions: for IC50: TR-FRET activity assay, ATP at Km, 60 minutes, read-out: Mer IC50
# T1 sequence (Q12866 21-999): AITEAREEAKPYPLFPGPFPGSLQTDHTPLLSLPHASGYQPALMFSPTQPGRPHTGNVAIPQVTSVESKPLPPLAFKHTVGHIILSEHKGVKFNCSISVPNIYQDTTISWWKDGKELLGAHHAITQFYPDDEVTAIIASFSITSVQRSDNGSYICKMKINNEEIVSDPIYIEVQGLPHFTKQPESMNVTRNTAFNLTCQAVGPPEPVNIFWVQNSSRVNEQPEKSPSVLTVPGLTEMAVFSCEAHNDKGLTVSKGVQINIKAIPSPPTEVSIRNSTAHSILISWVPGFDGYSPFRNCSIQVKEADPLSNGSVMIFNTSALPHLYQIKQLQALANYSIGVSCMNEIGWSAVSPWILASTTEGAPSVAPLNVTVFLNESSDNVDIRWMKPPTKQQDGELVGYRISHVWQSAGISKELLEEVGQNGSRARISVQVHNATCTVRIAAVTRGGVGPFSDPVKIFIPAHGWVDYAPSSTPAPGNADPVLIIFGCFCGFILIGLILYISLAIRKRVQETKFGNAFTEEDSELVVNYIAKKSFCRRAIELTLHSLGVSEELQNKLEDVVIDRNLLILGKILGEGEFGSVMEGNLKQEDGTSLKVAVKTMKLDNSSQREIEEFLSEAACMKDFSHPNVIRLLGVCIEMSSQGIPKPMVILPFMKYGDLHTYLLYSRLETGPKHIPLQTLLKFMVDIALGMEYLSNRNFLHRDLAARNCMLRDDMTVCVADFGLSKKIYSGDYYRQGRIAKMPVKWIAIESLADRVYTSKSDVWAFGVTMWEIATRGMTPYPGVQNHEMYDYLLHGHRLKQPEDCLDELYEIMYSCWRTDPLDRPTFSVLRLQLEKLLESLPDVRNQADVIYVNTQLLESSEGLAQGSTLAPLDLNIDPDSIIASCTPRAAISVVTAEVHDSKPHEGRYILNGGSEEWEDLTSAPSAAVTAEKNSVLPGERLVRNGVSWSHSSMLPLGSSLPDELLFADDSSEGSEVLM
# Summary of the method: (§1)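 Each kinase phosphorylated a fluorescent-labelled tyrosine peptide in 50 mM HEPES pH 7.5, 10 mM MgCl2, 1 mM EGTA, 0.01% Brij 35, 1 mM DTT at RT, with ATP at Km for that enzyme. After 60 min, EDTA quench and Eu-anti-phosphotyrosine antibody (30 min, dark); IC50 from TR-FRET decrease.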
# TYRO3 = target: T2, TYRO3 (Homo sapiens, UniProt Q06418); assay: TR-FRET kinase activity assay, TYRO3; format: biochemical; conditions: ATP at Km, 60 minutes
# T2 sequence (Q06418 41-890): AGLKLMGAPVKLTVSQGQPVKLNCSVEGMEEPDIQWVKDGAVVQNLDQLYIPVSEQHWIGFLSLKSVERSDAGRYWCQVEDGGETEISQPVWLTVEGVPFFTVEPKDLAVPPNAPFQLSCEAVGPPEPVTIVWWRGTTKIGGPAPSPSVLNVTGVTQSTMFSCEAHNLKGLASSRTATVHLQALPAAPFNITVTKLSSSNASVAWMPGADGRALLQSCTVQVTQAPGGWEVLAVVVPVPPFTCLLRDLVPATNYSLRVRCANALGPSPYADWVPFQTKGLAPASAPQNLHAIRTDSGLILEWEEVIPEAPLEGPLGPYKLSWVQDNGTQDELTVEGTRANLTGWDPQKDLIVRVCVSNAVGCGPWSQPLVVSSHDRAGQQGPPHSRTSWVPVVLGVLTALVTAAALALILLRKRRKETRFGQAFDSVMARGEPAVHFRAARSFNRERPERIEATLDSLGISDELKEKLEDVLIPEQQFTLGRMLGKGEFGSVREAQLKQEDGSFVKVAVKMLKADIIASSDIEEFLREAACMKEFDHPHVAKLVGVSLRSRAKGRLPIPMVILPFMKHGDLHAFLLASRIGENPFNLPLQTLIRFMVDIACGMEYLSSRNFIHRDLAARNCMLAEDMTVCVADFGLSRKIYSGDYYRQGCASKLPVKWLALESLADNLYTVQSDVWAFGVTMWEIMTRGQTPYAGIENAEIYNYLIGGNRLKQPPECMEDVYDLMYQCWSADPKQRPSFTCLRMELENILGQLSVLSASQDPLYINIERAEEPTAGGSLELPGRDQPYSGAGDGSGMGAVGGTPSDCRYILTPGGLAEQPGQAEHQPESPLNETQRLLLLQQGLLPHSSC
# Summary of the method: as §1
# [1] = ratio calculated as FLT3 IC50/Mer IC50
# [2] = ratio of Mer to FLT3: FLT3 IC50/Mer IC50
SMILES,IC50 (MERTK) [µM],FLT3/Mer ratio (FLT3 IC50/Mer IC50) (MERTK; [1]),IC50 (TYRO3) [µM],FLT3/Mer ratio (FLT3 IC50/Mer IC50) (MERTK; [2])
COC[C@H](C)Nc1ncc2c(-c3ccnc(N4CCN(C(=O)C5COC5)CC4)c3)cc([C@H]3CC[C@H](O)CC3)n2n1 [Compound 500],≤ 0.1,+++ (“+++” represents a ratio of >100),≤ 0.1,–
COC[C@H](C)Nc1ncc2c(-c3ccnc(Oc4cccnc4)c3)cc([C@H]3CC[C@H](O)CC3)n2n1 [Compound 490],≤ 0.1,+++ (“+++” represents a ratio of >100),≤ 0.1,–
COC[C@H](C)Nc1ncc2c(-c3cnn(CC(C)(C)N4CCOCC4)c3)cc([C@H]3CC[C@H](O)CC3)n2n1 [Compound 507],≤ 0.1,+++ (“+++” represents a ratio of >100),≤ 0.1,–
COC[C@H](C)Nc1ncc2c(-c3cnn(C(C)(C)C(=O)C4CCc5sc(C)nc5C4)c3)cc([C@H]3CC[C@H](O)CC3)n2n1 (stereo partly drawn) [Compound 496],≤ 0.1,+++ (“+++” represents a ratio of >100),≤ 0.1,–
COC[C@H](C)Nc1ncc2c(-c3ccnc(N4C[C@H]5CC[C@@H](C4)O5)c3)cc([C@H]3CC[C@H](O)CC3)n2n1 [Compound 445],≤ 0.1,+++ (“+++” represents a ratio of >100),≤ 0.1,–
COC[C@H](C)Nc1ncc2c(C3=CCN(C(=O)OC(C)(C)C)CC3)cc([C@H]3CC[C@H](O)CC3)n2n1 [Compound 425],≤ 0.1,+++ (“+++” represents a ratio of >100),≤ 0.1,–
COC[C@H](C)Nc1ncc2c(C3=C[C@@H]4CC[C@H](C3)N4C(C)=O)cc([C@H]3CC[C@H](O)CC3)n2n1 [Compound 462],≤ 0.1,+++ (“+++” represents a ratio of >100),≤ 0.1,–
COC[C@H](C)Nc1ncc2c(-c3ccc(CC(=O)O)cc3)cc([C@H]3CC[C@H](O)CC3)n2n1 [Compound 133],≤ 0.1,–,≤ 0.1,+++ (“+++” represents a ratio of >100)
COC[C@H](C)Nc1ncc2c(C#N)cc([C@H]3CC[C@H](O)CC3)n2n1 [Compound 481],≤ 0.1,+++ (“+++” represents a ratio of >100),0.1 to 1,–
COC[C@H](C)Nc1ncc2c(-c3ccc(-c4nn[nH]n4)cc3)cc([C@H]3CC[C@H](O)CC3)n2n1 [Compound 134],≤ 0.1,–,≤ 0.1,+++ (“+++” represents a ratio of >100)
COC[C@H](C)Nc1ncc2c(-c3cnn(C4COC4)c3)cc(-c3ccc(OC)cc3)n2n1 [Compound 502],≤ 0.1,++ (“++” represents a ratio of between 10 and 100),≤ 0.1,–
COC[C@H](C)Nc1ncc2c(-c3cnn(C(C)(C)C(=O)N4CCOCC4)c3)cc(C3CCc4[nH]ncc4C3)n2n1 (stereo partly drawn) [Compound 488],≤ 0.1,+++ (“+++” represents a ratio of >100),≤ 0.1,–
C[C@@H](CC(F)(F)F)Nc1ncc2c(C3=CCNCC3)cc([C@H]3CC[C@H](O)CC3)n2n1 [Compound 442],≤ 0.1,++ (“++” represents a ratio of between 10 and 100),≤ 0.1,–
COC[C@H](C)Nc1ncc2c(-c3ccnc(N4CCN(S(=O)(=O)C5CC5)CC4)c3)cc([C@H]3CC[C@H](O)CC3)n2n1 [Compound 491],≤ 0.1,+++ (“+++” represents a ratio of >100),≤ 0.1,–
COC[C@H](C)Nc1ncc2c(-c3ccnc(N4CCOCC4=O)c3)cc([C@H]3CC[C@H](O)CC3)n2n1 [Compound 423],≤ 0.1,+++ (“+++” represents a ratio of >100),≤ 0.1,–
COC[C@H](C)Nc1ncc2c(-c3cnn(C[C@@H]4CCO4)c3)cc([C@H]3CC[C@H](O)CC3)n2n1 [Compound 478],≤ 0.1,+++ (“+++” represents a ratio of >100),≤ 0.1,–
COC[C@H](C)Nc1ncc2c(-c3cnn(C(C)(C)C(=O)N4CCC(C)(C#N)CC4)c3)cc([C@H]3CC[C@H](O)CC3)n2n1 [Compound 451],≤ 0.1,+++ (“+++” represents a ratio of >100),≤ 0.1,–
COC[C@H](C)Nc1ncc2c(-c3ccnc(NC4CCOCC4)c3)cc([C@H]3CC[C@H](O)CC3)n2n1 [Compound 431],≤ 0.1,+++ (“+++” represents a ratio of >100),≤ 0.1,–
C[C@H](CC(F)(F)F)Nc1ncc2c(C3=C[C@H]4CC[C@@H](C3)N4C(=O)OC(C)(C)C)cc([C@H]3CC[C@H](O)CC3)n2n1 [Compound 456],≤ 0.1,+++ (“+++” represents a ratio of >100),≤ 0.1,–
COC[C@H](C)Nc1ncc2c(-c3ccc(C(C)(C)C(=O)N4CCOCC4)s3)cc([C@H]3CC[C@H](O)CC3)n2n1 [Compound 460],≤ 0.1,+++ (“+++” represents a ratio of >100),≤ 0.1,–
CC(CC1COC1)Nc1ncc2c(-c3cnn(C4COC4)c3)cc([C@H]3CC[C@H](O)CC3)n2n1 (mixture of isomers) [Compound 447],1 to 10,+ (“+” represents a ratio of >2.0 and <10),1 to 10,–
CCC(=O)N1CCN(c2cc(-c3cc([C@H]4CC[C@H](O)CC4)n4nc(N[C@@H](C)COC)ncc34)ccn2)CC1 [Compound 432],≤ 0.1,+++ (“+++” represents a ratio of >100),≤ 0.1,–
COC[C@H](C)Nc1ncc2c(-c3ccnc(N4CC5(COC5)C4)c3)cc([C@H]3CC[C@H](O)CC3)n2n1 [Compound 426],≤ 0.1,+++ (“+++” represents a ratio of >100),≤ 0.1,–
COC[C@H](C)Nc1ncc2c(-c3ccnc(N4CCC5(COC5)C4)c3)cc([C@H]3CC[C@H](O)CC3)n2n1 [Compound 493],≤ 0.1,+++ (“+++” represents a ratio of >100),≤ 0.1,–
